Assay [1] deals with T1, Inosine-5'-monophosphate dehydrogenase 2 (Homo sapiens, UniProt P12268). Kind of assay: Inhibition of IMPDH2.
Assay [2] concerns the target T1, Inosine-5'-monophosphate dehydrogenase 2. Kind of assay: Inhibition of IMPDH2 at 50 uM.

We go through 20 molecules from ChEMBL document CHEMBL1147020, “Low molecular weight indole fragments as IMPDH inhibitors” (Bioorg Med Chem Lett, 2006).

Active and inactive are the calls of the source. No cut-off for these calls is given here.

Usually IC50 stands for the midpoint of a concentration-inhibition curve. In assay [1], `Nc1ccc2c(-c3ccncc3)c[nH]c2c1` had an IC50 of 0.637 µM.

As to `c1ccc2c(-c3ccncc3)c[nH]c2c1`, in assay [1], it took 1.15 µM to reach half-maximal inhibition (IC50).

Broadly, the inhibition is the drop in the measured response relative to a control, in per cent. Consider `c1cncc(-c2c[nH]c3ccccc23)c1`, for which the inhibition result in assay [2] is “inactive”.

`COc1cc(N)ccc1-c1cnco1`: the midpoint of inhibition in assay [1], the IC50, lay at 8.2 µM. Still for that read-out and setting: under `Cn1cc(-c2ccoc2)c2ccccc21` stands 6.21 µM.

For `Cn1cc(C(N)=O)c2ccccc21`, in assay [2], the inhibition worked out at 50%. `Cn1cc(C=O)c2ccccc21` returned an IC50 in assay [1] of 6.84 µM. For `NC(=O)c1c[nH]c2ccccc12`, in assay [2], the inhibition entry is “inactive”.

In the case of `Cc1cc(-c2c[nH]c3cc(N)ccc23)ccn1`, in assay [2], the inhibition entry was “inactive”. On to `O=Cc1c[nH]c2ccccc12` [3-FORMYLINDOLE], for which the IC50 in assay [1] is 22.7 µM. This counts as double-digit micromolar. `Cn1cc(-c2ccncc2)c2ccc(Br)cc21` gave an inhibition in assay [2] of 62%. In assay [1], `Cn1cc(C#N)c2ccccc21` yielded an IC50 of 7.66 µM.

In turn, `Brc1ccc2c(-c3ccncc3)c[nH]c2c1` showed an IC50 in assay [1] of 0.408 µM. Same read-out and setting: with `c1ccc2c(-c3ccoc3)c[nH]c2c1` the figure was 5.84 µM; with `Nc1ccc2c(-c3ccsc3)c[nH]c2c1`, 2.32 µM. The molecule `Cc1[nH]c2ccccc2c1-c1ccncc1` yielded an IC50 in assay [1] of 0.343 µM. On the same count and under the same terms, with `Nc1cccc2c(-c3ccncc3)c[nH]c12` the figure was 0.524 µM; with `Nc1ccc2c(-c3cncs3)c[nH]c2c1`, 27.9 µM; with `N#Cc1c[nH]c2ccccc12`, 20.9 µM. Same read-out and setting: under `Cc1[nH]c2cc(N)ccc2c1-c1ccncc1` stands 0.419 µM.
